Drawing on ChEMBL document CHEMBL5625185 (Eur J Med Chem, 2023), this text covers Cmax and Drug uptake for two molecules.

The Cmax is the maximum level reached in the sampled fluid or tissue.

Type in all cases: ADME, organism-based
Common to all, as to conditions: in vivo

The nature of data set [1]: Cmax in wild type mouse at 50 mg/kg, po measured upto 8 hrs by UPLC-QTOFMS analysis.
Data set [2] is described as follows: Drug distribution in wild type mouse liver at 50 mg/kg, po measured after 1 hr by UPLC-QTOFMS analysis.
Data set [3] in a line: Drug distribution in wild type mouse kidney at 50 mg/kg, po measured after 1 hr by UPLC-QTOFMS analysis.
A short description of data set [4]: Drug distribution in wild type mouse lung at 50 mg/kg, po measured after 1 hr by UPLC-QTOFMS analysis.
A short description of data set [5]: Drug distribution in wild type mouse spleen at 50 mg/kg, po measured after 1 hr by UPLC-QTOFMS analysis.
The nature of data set [6]: Drug distribution in wild type mouse brain at 50 mg/kg, po measured after 1 hr by UPLC-QTOFMS analysis.
Data set [7] can be described thus: Drug distribution in wild type mouse testis at 50 mg/kg, po measured after 1 hr by UPLC-QTOFMS analysis.

As to `COc1ccc2c3c([nH]c2c1)[C@H](CC(C)C)N1C(=O)[C@H](CCC(=O)NC(C)C)NC(=O)[C@@H]1C3`, in data set [1], the Cmax is 8.74 µM. Also, the Drug uptake result in data set [2] is on record as “Active”; in data set [3], “Active”; in data set [4], “Active”; in data set [5], “Active”; in data set [6] it was “Not Active”; in data set [7] it was “Not Active”.
In the case of `COc1ccc2c3c([nH]c2c1)[C@H](CC(C)C)N1C(=O)[C@H](CCC(=O)NC(C)(C)C)NC(=O)[C@@H]1C3`, the Drug uptake result in data set [2] is recorded as “Active”; in data set [3], “Active”; in data set [4], “Active”; in data set [5], “Active”; in data set [6], “Not Active”; in data set [7] it was “Not Active”.
